Key:
[1] = system: mRNA expressed from the genes (A) to (D) in rat liver; test: Behavior of genes (mRNA expression level, oligo-DNA microarray) in rat liver after 28-day oral administration; format: in vivo
Procedure, shortened: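 Liver mRNA measured by oligo-DNA microarray after 28 days of once-daily oral gavage in 5-week-old male F344 rats (n=4 per group), with vehicle controls given equal solvent volume. Significance threshold: 1.5-fold up or down versus control, with changes opposite in direction to other carcinogens counted as not significant.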

liver = settings: in vivo; cited from earlier work
rodent = settings: in vivo; cited from earlier work
[2] = gene group (A), Unigene No. Rn.167075, mRNA vs vehicle control group
[3] = gene group (C), Unigene No. Rn.120914, mRNA vs vehicle control group
[4] = (C), Unigene Rn.120914, defined direction +, rat liver, oral once daily 28 days

## c1ccc2cc3c(ccc4ccccc43)cc2c1 [TS046, Benz[a]anthracene]
[1]; gene group (A), Unigene No. Rn.144554, mRNA vs vehicle control group
  Behavior of gene caused by administration of chemical substance, Gene No. 4846: −
[1]; [2]
  Behavior of gene caused by administration of chemical substance, Gene No. 2026: +
  Behavior of gene caused by administration of chemical substance, Gene No. 4218: −
[1]; gene group (A), Unigene No. Rn.5834, mRNA vs vehicle control group
  Behavior of gene caused by administration of chemical substance, Gene No. 6182: +
[1]; gene group (A), Unigene No. Rn.9836, mRNA vs vehicle control group
  Behavior of gene caused by administration of chemical substance, Gene No. 5600: −
[1]; gene group (B), Unigene No. Rn.1430, mRNA vs vehicle control group
  Behavior of gene caused by administration of chemical substance, Gene No. 1494: −
[1]; gene group (B), Unigene No. Rn.19329, mRNA vs vehicle control group
  Behavior of gene caused by administration of chemical substance, Gene No. 2045: −
[1]; gene group (B), Unigene No. Rn.21240, mRNA vs vehicle control group
  Behavior of gene caused by administration of chemical substance, Gene No. 2203: +
[1]; gene group (C), Unigene No. Rn.106184, mRNA vs vehicle control group
  Behavior of gene caused by administration of chemical substance, Gene No. 533: −
[1]; gene group (C), Unigene No. Rn.108075, mRNA vs vehicle control group
  Behavior of gene caused by administration of chemical substance, Gene No. 725: +
[1]; gene group (C), Unigene No. Rn.11766, mRNA vs vehicle control group
  Behavior of gene caused by administration of chemical substance, Gene No. 1163: +
[1]; gene group (C), Unigene No. Rn.118529, mRNA vs vehicle control group
  Behavior of gene caused by administration of chemical substance, Gene No. 4973: +
[1]; gene group (C), Unigene No. Rn.119024, mRNA vs vehicle control group
  Behavior of gene caused by administration of chemical substance, Gene No. 4095: +
[1]; [3]
  Behavior of gene caused by administration of chemical substance, Gene No. 1334: −
  Behavior of gene caused by administration of chemical substance, Gene No. 6620: −
[1]; gene group (C), Unigene No. Rn.123063, mRNA vs vehicle control group
  Behavior of gene caused by administration of chemical substance, Gene No. 6303: −
[1]; gene group (C), Unigene No. Rn.143213, mRNA vs vehicle control group
  Behavior of gene caused by administration of chemical substance, Gene No. 5878: +
[1]; gene group (C), Unigene No. Rn.144946, mRNA vs vehicle control group
  Behavior of gene caused by administration of chemical substance, Gene No. 1131: +
[1]; gene group (C), Unigene No. Rn.14744, mRNA vs vehicle control group
  Behavior of gene caused by administration of chemical substance, Gene No. 1562: −
[1]; gene group (C), Unigene No. Rn.1647, mRNA vs vehicle control group
  Behavior of gene caused by administration of chemical substance, Gene No. 1741: +
[1]; gene group (C), Unigene No. Rn.164817, mRNA vs vehicle control group
  Behavior of gene caused by administration of chemical substance, Gene No. 893: +
[1]; gene group (C), Unigene No. Rn.167685, mRNA vs vehicle control group
  Behavior of gene caused by administration of chemical substance, Gene No. 6026: −
[1]; gene group (C), Unigene No. Rn.185941, mRNA vs vehicle control group
  Behavior of gene caused by administration of chemical substance, Gene No. 154: +
[1]; gene group (C), Unigene No. Rn.18728, mRNA vs vehicle control group
  Behavior of gene caused by administration of chemical substance, Gene No. 1993: +
[1]; gene group (C), Unigene No. Rn.201760, mRNA vs vehicle control group
  Behavior of gene caused by administration of chemical substance, Gene No. 813: +
[1]; gene group (C), Unigene No. Rn.23969, mRNA vs vehicle control group
  Behavior of gene caused by administration of chemical substance, Gene No. 2494: −
[1]; gene group (C), Unigene No. Rn.24561, mRNA vs vehicle control group
  Behavior of gene caused by administration of chemical substance, Gene No. 2546: +
[1]; gene group (C), Unigene No. Rn.43232, mRNA vs vehicle control group
  Behavior of gene caused by administration of chemical substance, Gene No. 3776: +
[1]; gene group (C), Unigene No. Rn.4620, mRNA vs vehicle control group
  Behavior of gene caused by administration of chemical substance, Gene No. 3929: −
[1]; gene group (C), Unigene No. Rn.9757, mRNA vs vehicle control group
  Behavior of gene caused by administration of chemical substance, Gene No. 1119: +
[1]; gene group (C), Unigene No. Rn.9779, mRNA vs vehicle control group
  Behavior of gene caused by administration of chemical substance, Gene No. 6742: +
[1]; gene group (C), Unigene No. Rn.9862, mRNA vs vehicle control group
  Behavior of gene caused by administration of chemical substance, Gene No. 5634: +
[1]; gene group (D), Unigene No. Rn.9939, mRNA vs vehicle control group
  Behavior of gene caused by administration of chemical substance, Gene No. 5726: +
liver
  Liver carcinogenicity: Cr−
rodent
  Carcinogenicity: C+

## CCOC(N)=O [TS054, Urethane]
[1]; (A), Unigene Rn.144554, defined direction +, rat liver, oral once daily 28 days
  Behavior of gene caused by administration of chemical substance, Gene No. 4846: +
[1]; (A), Unigene Rn.167075, defined direction +, rat liver, oral once daily 28 days, significant = 1.5 times or more or 1/1.5 or less of control
  Behavior of gene caused by administration of chemical substance, Gene No. 4218: −
[1]; (A), Unigene Rn.167075, defined direction −, rat liver, oral once daily 28 days
  Behavior of gene caused by administration of chemical substance, Gene No. 2026: −
[1]; (A), Unigene Rn.5834, defined direction +, rat liver, oral once daily 28 days
  Behavior of gene caused by administration of chemical substance, Gene No. 6182: +
[1]; (A), Unigene Rn.9836, defined direction +, rat liver, oral once daily 28 days
  Behavior of gene caused by administration of chemical substance, Gene No. 5600: −
[1]; (B), Unigene Rn.1430, defined direction −, rat liver, oral once daily 28 days
  Behavior of gene caused by administration of chemical substance, Gene No. 1494: −
[1]; (B), Unigene Rn.19329, defined direction +, rat liver, oral once daily 28 days
  Behavior of gene caused by administration of chemical substance, Gene No. 2045: −
[1]; (B), Unigene Rn.21240, defined direction +, rat liver, oral once daily 28 days
  Behavior of gene caused by administration of chemical substance, Gene No. 2203: −
[1]; (C), Unigene Rn.106184, defined direction +, rat liver, oral once daily 28 days
  Behavior of gene caused by administration of chemical substance, Gene No. 533: −
[1]; (C), Unigene Rn.108075, defined direction −, rat liver, oral once daily 28 days
  Behavior of gene caused by administration of chemical substance, Gene No. 725: −
[1]; (C), Unigene Rn.11766, defined direction +, rat liver, oral once daily 28 days
  Behavior of gene caused by administration of chemical substance, Gene No. 1163: −
[1]; (C), Unigene Rn.118529, defined direction −, rat liver, oral once daily 28 days
  Behavior of gene caused by administration of chemical substance, Gene No. 4973: −
[1]; (C), Unigene Rn.119024, defined direction −, rat liver, oral once daily 28 days
  Behavior of gene caused by administration of chemical substance, Gene No. 4095: −
[1]; [4]
  Behavior of gene caused by administration of chemical substance, Gene No. 1334: −
  Behavior of gene caused by administration of chemical substance, Gene No. 6620: −
[1]; (C), Unigene Rn.123063, defined direction −, rat liver, oral once daily 28 days
  Behavior of gene caused by administration of chemical substance, Gene No. 6303: −
[1]; (C), Unigene Rn.143213, defined direction −, rat liver, oral once daily 28 days
  Behavior of gene caused by administration of chemical substance, Gene No. 5878: −
[1]; (C), Unigene Rn.144946, defined direction −, rat liver, oral once daily 28 days
  Behavior of gene caused by administration of chemical substance, Gene No. 1131: −
[1]; (C), Unigene Rn.14744, defined direction −, rat liver, oral once daily 28 days
  Behavior of gene caused by administration of chemical substance, Gene No. 1562: −
[1]; (C), Unigene Rn.1647, defined direction −, rat liver, oral once daily 28 days
  Behavior of gene caused by administration of chemical substance, Gene No. 1741: −
[1]; (C), Unigene Rn.164817, defined direction +, rat liver, oral once daily 28 days
  Behavior of gene caused by administration of chemical substance, Gene No. 893: −
[1]; (C), Unigene Rn.167685, defined direction −, rat liver, oral once daily 28 days
  Behavior of gene caused by administration of chemical substance, Gene No. 6026: −
[1]; (C), Unigene Rn.185941, defined direction −, rat liver, oral once daily 28 days
  Behavior of gene caused by administration of chemical substance, Gene No. 154: −
[1]; (C), Unigene Rn.18728, defined direction −, rat liver, oral once daily 28 days
  Behavior of gene caused by administration of chemical substance, Gene No. 1993: −
[1]; (C), Unigene Rn.201760, defined direction +, rat liver, oral once daily 28 days
  Behavior of gene caused by administration of chemical substance, Gene No. 813: −
[1]; (C), Unigene Rn.23969, defined direction +, rat liver, oral once daily 28 days
  Behavior of gene caused by administration of chemical substance, Gene No. 2494: −
[1]; (C), Unigene Rn.24561, defined direction −, rat liver, oral once daily 28 days
  Behavior of gene caused by administration of chemical substance, Gene No. 2546: −
[1]; (C), Unigene Rn.43232, defined direction −, rat liver, oral once daily 28 days
  Behavior of gene caused by administration of chemical substance, Gene No. 3776: −
[1]; (C), Unigene Rn.4620, defined direction +, rat liver, oral once daily 28 days
  Behavior of gene caused by administration of chemical substance, Gene No. 3929: −
[1]; (C), Unigene Rn.9757, defined direction +, rat liver, oral once daily 28 days
  Behavior of gene caused by administration of chemical substance, Gene No. 1119: −
[1]; (C), Unigene Rn.9779, defined direction +, rat liver, oral once daily 28 days
  Behavior of gene caused by administration of chemical substance, Gene No. 6742: −
[1]; (C), Unigene Rn.9862, defined direction −, rat liver, oral once daily 28 days
  Behavior of gene caused by administration of chemical substance, Gene No. 5634: −
[1]; (D), Unigene Rn.9939, defined direction −, rat liver, oral once daily 28 days
  Behavior of gene caused by administration of chemical substance, Gene No. 5726: +
liver
  Liver carcinogenicity: Cr+
rodent
  Carcinogenicity: C+

Reference: US20110039721A1, “METHOD FOR PREDICTION ABOUT CARCINOGENICITY OF SUBSTANCE IN RODENT” (Chemicals Evaluation and Research Institute, priority 2007, published 2011)
